Assay results published in article PMC3664642, “A Peptide against Soluble Guanylyl Cyclase α1: A New Approach to Treating Prostate Cancer” (PLoS ONE, 2013).
“Also recorded” adds a separate entry of the source. Where no end group is shown, it is not given here.

How the values were obtained:
C81 cells [1] = assay: Proliferation/cytotoxicity, castration-resistant C81 cells (MTT); type: cell-based; conditions: different concentrations; Fig. 3C; averages of three independent experiments; P<0.03 vs Vehicle
Experimental: LNCaP, C81, PC-3 and Cos cells were grown as previously described. CWR-22Rv1 cells were cultured in RMPI-1640 medium with 10% FBS and 50 µg/ml Gentamicin (Gibco). Control siRNA, sGCα1 siRNA and AKT siRNA (Dharmacon) at 50 nM final concentration was transfected into cells using Lipofectamine siMAX (Invitrogen).
(§1) For proliferation, cells were grown in medium containing 2% FBS extracted with dextran-coated charcoal (DCC). 48 hours later, ethanol or 1 nM R1881 was added to the cells followed by peptide treatment. The MTT assay (Sigma) was used as before to determine cell number. For apoptosis, 5000 cells were seeded in 96-well plates and treated with Vehicle (DMSO), Peptide A-8R (25 µM), Etoposide (50 µM) (Sigma) at different time points. The Caspase (3/7) activity was measured using Apo-ONE Homogeneous Caspase-3/7 assay kit (Promega). PARP cleavage was also used to measure apoptosis, and is described below.
Vehicle or different concentrations of Peptide A-8R or C-8R, as shown, was added to (A) hormone-dependent LNCaP cells grown in 2% serum without or with 1 nM R1881, (C) castration-resistant C81 or CWR-22Rv1 cells, or (E) sGCα1-deficient PC-3 or Cos cells. Cell number was measured after various days of incubation. Data points represent averages of three independent experiments plus standard deviations. […]

sGCα1-sGCβ1 = sGCα1-sGCβ1 co-immunoprecipitation, LNCaP extracts; type: binding; conditions: LNCaP whole-cell extracts; Fig. S1A
Experimental: Immunoprecipitation (IP) in LNCaP cells was performed as described previously. Whole-cell extracts from LNCaP cells were subjected to IP using Protein A/G plus Agarose (Santa Cruz). IP antibodies were against sGCα1 (Cayman Chemical), sGCβ1 (Cayman Chemical), or rabbit IgG (Santa Cruz) as control. For Biotin pulldown, 5 µg Biotin-labeled Peptide A was incubated with NeutrAvidin Agarose Resin (Thermo Scientific) for 3 hours at 4°C, after which whole-cell extract from LNCaP cells was added and incubated overnight at 4°C. Resin was washed and eluted with SDS Sample buffer, followed by SDS-PAGE gel electrophoresis.
(A) Whole-cell extracts from LNCaP cells treated with Vehicle, Peptide A-8R, or C-8R were subjected to IP using an anti-sGCα1 or anti-sGCβ1 antibody and then probed by Western blotting for sGCα1 (Upper) or sGCβ1 (Lower). Input represents amount of sGCα1 or sGCβ1 found in extracts. (B) LNCaP cells grown in the absence or presence of 1 nM R1881 were treated with Vehicle, 20 µM Peptide A-8R, 20 µM C-8R, or 8-Br-cGMP and monitored for cGMP levels using the cGMP E1A kit (Enzo Life Sciences). (C) LNCaP cells grown in the absence or presence of 8-Br-cGMP were treated with Vehicle, Peptide A-8R, or ODQ and monitored for cell density using the MTT assay. (D) LNCaP cells were treated with Vehicle or different concentrations of Peptide A-8R and C-PTIO and monitored for cell density. […]

[2] = tested on: ROS generation in LNCaP cells; assay: ROS generation (CM-H2DCFDA), LNCaP/C81 cells; type: cell-based; conditions: Fig. 4A
Experimental: Intracellular ROS levels were evaluated using the fluorescent probe 5-(and-6)-chloromethyl-2′,7′-dichlorodihydrofluorescein diacetate (CM-H2DCFDA) (Invitrogen). After treatments with Peptide A-8R, C81 cells were loaded with 20 µM CM-H2DCFDA and incubated at 37°C for 30 min in the dark. Cells were then washed with PBS and fluorescence was measured at the excitation and emission wavelengths of 490 and 535 nm, respectively, using a multi-well fluorescence plate reader. For NAC (N-acetyl cysteine) (Sigma) rescue experiment, cells were pretreated with 1 or 5 mM NAC for 2 hours before adding Peptide A-8R.
Figure 4 Peptide A-8R kills prostate cancer cells by mediating ROS generation. (A) C81 cells were treated with Vehicle or different µMolar concentrations of Peptide A-8R and without or with 0–5 mM NAC and monitored for ROS generation after 0–30 min as measured by fluorescence intensity (FI). Bar graphs represent averages of three independent experiments plus standard deviations. Note that asterisks on bar graphs found with NAC are compared to equivalent data without NAC. (B) C81 cells were treated with Vehicle or different concentrations of Peptide A-8R, as shown, and 0–5 mM NAC, as shown, and monitored for cell number after 0–6 days of incubation as measured by MTT assay. Data points represent averages of three independent experiments plus standard deviations. Asterisks indicate statistical significance (P<0.04). (C) C81 cells were treated with Vehicle or different concentrations of Peptide A-8R, as shown, and with or without 5 mM NAC, as shown, and monitored DNA damage after 1 hr incubation as measured by Comet assay.

[3] = tested on: Caspase 3/7 activity in PC-3 cells; assay: Caspase 3/7 assay, PC-3 cells; type: cell-based; conditions: 10 µM; 0–24 hrs; Fig. 5B
Experimental: as §1
(§2) Figure 5 Peptide A-8R induces apoptosis of prostate cancer cells. (A) LNCaP, (B) PC-3, or (C) Cos cells were treated with Vehicle, Peptide A-8R (10 µM), or Etoposide (20 µM) for 0–24 hrs and subjected to a Caspase assay to measure apoptosis. Bar graphs represent averages of three independent experiments plus standard deviations. All activities are relative to the first condition, and this activity was set to 1. Asterisks indicate statistical significance (P<0.005). (D) LNCaP cells were treated with Vehicle, Peptide C-8R, Peptide A-8R, or Etoposide (each drug at 50 µM) for 8 hrs and monitored for apoptosis by measuring PARP cleavage using Western blotting. Note that β-actin was used to control for protein loading.

[4] = tested on: Caspase 3/7 activity in Cos cells; assay: Caspase 3/7 assay, Cos cells; type: cell-based, African green monkey; conditions: 10 µM; 0–24 hrs; Fig. 5C
Experimental: as §1, §2

C81 cells [5] = assay: DAPI DNA staining, C81 cells; type: cell-based; conditions: 50 µM Peptide A-8R, 1 hr, with or without 5 mM NAC, Fig. S6
Experimental: C81 cells were first treated with or without 5 mM NAC for 2 hrs and then Vehicle or different concentrations of Peptide A-8R, as shown, for 1 hr and stained with DAPI. Phase contrast images are shown. (TIF) Click here for additional data file.

prostate cancer cells = assay: Cytotoxicity against prostate cancer cells (summary); type: cell-based; conditions: hormone-dependent and hormone-refractory prostate cancer cells
Experimental: as §1

## Ac-TFCKAFPFHIIRRRRRRRR [Peptide A-8R]
C81 cells [1]
  suppression of growth of C81 cells: very effective at suppressing the growth of C81 cells (Fig. 3C), matching the effect on hormone-dependent LNCaP cells
sGCα1-sGCβ1
  effect on sGCα1-sGCβ1 co-IP (heterodimerization): had no effect on either sGCα1 co-IP with sGCβ1 or sGCβ1 co-IP with sGCα1; also recorded: does not interfere with sGCα1-sGCβ1 dimerization
[2]; 0–30 min, fluorescence 490/535 nm, S5B, averages of three independent experiments
  ROS induction: significant ROS induction in LNCaP cells within 30 minutes
[2]; 50 µM
  ROS generation at 50 µM: decreased with 50 µM; also recorded: minimal ROS induction; also recorded: lowest induction of ROS
[2]; 10 to 25 µM
  ROS generation, concentration dependence: rose when Peptide A-8R concentration was increased from 10 to 25 µM
[3]
  induction of apoptosis, PC-3: failed to induce apoptosis
[4]
  induction of apoptosis, Cos: failed to induce apoptosis
C81 cells [5]
  DAPI staining / effect on nuclei and DNA: kills the cells and disrupts their nuclei and DNA such that DAPI staining yields no signal
Prostate cancer cells
  cytotoxic activity against prostate cancer cells (summary): strongly cytotoxic to prostate cancer cells, rapidly inducing apoptosis; also recorded: strongly cytotoxic to sGCα1-expressing prostate cancer cells, but not to sGCα1-deficient cells; also recorded: showed the strongest activity
